According to ChEMBL document CHEMBL4619777, “A New Class of Dengue and West Nile Virus Protease Inhibitors with Submicromolar Activity in Reporter Gene DENV-2 Protease and Viral Replication Assays” (J Med Chem, 2020):
Residues, ends and D or L forms follow the SMILES beside them. *: point of attachment. Bz = O=C(c1ccccc1)*

Legend:
[1] = biological target: Genome polyprotein (West Nile virus) (UniProt P06935); experiment: Inhibition of West Nile virus NS2B-NS3 protease expressed in Escherichia coli BL21 lambda (DE3) cells at 50 uM using Abz-Gly-Leu-Lys-Arg-Gly-Gly-3-(NO2)Tyr as substrate preincubated for 15 mins followed by substrate addition measured for 15 mins by fluorimetric analysis relative to control
Sequence of Genome polyprotein (West Nile virus) (P06935 whole entry): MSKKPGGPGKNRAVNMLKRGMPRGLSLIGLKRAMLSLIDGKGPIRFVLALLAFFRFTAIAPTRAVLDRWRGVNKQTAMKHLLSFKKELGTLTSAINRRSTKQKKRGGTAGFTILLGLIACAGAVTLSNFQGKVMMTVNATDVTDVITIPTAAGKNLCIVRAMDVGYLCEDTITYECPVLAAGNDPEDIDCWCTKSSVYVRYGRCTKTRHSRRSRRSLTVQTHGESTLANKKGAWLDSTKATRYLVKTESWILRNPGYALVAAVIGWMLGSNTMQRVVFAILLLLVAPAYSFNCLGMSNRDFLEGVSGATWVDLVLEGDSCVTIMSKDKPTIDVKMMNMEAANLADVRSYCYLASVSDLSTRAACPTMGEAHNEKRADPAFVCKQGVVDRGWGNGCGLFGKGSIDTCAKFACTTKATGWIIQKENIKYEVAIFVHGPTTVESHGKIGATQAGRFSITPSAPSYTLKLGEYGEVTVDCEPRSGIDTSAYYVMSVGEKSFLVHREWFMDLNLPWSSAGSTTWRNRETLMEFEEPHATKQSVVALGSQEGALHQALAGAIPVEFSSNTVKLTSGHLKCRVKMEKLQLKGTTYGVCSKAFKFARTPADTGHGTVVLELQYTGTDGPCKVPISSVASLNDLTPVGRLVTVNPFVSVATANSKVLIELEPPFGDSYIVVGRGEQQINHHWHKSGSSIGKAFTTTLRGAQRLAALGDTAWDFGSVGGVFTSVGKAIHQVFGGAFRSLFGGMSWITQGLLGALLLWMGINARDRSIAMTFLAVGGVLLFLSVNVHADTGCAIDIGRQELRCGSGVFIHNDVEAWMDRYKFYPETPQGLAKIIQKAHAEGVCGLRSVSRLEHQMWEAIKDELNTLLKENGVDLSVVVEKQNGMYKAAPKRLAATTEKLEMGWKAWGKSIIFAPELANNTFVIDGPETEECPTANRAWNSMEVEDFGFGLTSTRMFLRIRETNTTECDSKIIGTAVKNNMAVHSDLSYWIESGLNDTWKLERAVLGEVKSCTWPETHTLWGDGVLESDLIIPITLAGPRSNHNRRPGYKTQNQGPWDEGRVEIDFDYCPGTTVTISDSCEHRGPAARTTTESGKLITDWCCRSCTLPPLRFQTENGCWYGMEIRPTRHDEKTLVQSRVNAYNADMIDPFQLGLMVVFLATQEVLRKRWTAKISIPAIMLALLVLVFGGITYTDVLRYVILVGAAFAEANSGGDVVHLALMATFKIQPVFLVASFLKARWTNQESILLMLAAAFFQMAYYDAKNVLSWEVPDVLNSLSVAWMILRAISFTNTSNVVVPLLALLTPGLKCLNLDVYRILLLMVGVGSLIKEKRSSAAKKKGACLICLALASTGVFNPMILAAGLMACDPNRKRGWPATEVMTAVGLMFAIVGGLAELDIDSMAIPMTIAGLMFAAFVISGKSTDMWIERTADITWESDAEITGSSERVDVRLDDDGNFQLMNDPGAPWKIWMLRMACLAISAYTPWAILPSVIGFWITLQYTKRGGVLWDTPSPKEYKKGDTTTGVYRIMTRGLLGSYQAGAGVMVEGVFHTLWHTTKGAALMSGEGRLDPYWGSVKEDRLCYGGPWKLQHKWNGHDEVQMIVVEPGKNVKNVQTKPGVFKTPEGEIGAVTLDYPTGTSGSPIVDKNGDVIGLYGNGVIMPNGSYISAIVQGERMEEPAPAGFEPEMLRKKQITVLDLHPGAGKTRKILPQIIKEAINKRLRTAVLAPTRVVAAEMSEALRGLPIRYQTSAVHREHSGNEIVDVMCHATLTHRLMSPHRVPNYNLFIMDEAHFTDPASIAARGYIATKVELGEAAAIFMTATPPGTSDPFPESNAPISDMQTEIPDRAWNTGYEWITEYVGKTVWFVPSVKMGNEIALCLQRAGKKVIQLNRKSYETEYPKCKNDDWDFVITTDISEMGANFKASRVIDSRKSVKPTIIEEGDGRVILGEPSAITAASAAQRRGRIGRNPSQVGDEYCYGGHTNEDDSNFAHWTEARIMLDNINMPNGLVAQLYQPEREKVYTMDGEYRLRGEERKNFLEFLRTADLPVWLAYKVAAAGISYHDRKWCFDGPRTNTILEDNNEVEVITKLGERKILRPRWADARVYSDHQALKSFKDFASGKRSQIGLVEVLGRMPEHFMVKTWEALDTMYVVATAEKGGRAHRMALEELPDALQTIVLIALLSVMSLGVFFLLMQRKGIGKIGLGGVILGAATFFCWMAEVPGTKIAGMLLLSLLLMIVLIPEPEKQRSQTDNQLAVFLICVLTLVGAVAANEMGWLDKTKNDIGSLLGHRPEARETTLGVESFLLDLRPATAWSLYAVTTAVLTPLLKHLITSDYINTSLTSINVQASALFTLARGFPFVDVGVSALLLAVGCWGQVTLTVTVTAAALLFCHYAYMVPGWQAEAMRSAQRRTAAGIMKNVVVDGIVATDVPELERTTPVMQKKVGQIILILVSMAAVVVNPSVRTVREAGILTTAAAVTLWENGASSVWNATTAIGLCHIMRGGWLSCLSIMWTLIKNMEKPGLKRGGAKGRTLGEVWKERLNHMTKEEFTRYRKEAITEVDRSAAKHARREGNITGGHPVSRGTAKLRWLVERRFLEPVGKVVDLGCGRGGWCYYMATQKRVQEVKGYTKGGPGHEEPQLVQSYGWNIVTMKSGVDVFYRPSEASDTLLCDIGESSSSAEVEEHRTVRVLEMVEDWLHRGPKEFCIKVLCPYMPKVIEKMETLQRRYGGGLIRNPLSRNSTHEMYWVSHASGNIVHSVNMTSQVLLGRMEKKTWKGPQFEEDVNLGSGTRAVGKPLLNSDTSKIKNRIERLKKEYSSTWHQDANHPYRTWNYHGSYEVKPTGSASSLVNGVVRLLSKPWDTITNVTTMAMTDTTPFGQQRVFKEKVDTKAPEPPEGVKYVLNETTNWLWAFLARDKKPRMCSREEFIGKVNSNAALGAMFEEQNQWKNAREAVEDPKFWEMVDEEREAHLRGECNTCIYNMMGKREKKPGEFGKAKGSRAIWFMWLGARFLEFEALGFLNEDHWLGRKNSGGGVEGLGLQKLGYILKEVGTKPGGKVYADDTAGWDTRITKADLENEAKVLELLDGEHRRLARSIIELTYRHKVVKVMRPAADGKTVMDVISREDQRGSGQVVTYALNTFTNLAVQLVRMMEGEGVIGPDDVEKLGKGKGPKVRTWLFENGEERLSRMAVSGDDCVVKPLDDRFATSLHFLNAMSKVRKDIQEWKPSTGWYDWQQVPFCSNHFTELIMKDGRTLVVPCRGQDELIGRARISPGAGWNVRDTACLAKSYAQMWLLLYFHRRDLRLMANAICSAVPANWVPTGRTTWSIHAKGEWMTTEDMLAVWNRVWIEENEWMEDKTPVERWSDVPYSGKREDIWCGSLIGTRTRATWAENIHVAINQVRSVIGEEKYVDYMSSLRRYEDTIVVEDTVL

[2] = Cytotoxicity against human HeLa cells assessed as reduction in cell viability measured after 24 hrs by celltiter-blue assay; assay type: cell-based
[3] = biological target: Genome polyprotein (dengue virus type 2) (UniProt P29990); experiment: Inhibition of Dengue virus serotype 2 NS2B-NS3 protease expressed in Escherichia coli BL21 lambda (DE3) cells at 50 uM using Abz-Nle-Lys-Arg-Arg-Ser-3-(NO2)Tyr as substrate preincubated for 15 mins followed by substrate addition and measured for 15 mins by FRET assay relative to control
[4] = biological target: T1, Genome polyprotein (dengue virus type 2, UniProt P29990); experiment: Inhibition of Dengue virus serotype 2 NS2B-NS3 protease transfected in human HeLa cells measured after 24 hrs by Renilla-luciferase reporter gene assay; assay type: cell-based
[5] = biological target: Genome polyprotein (dengue virus type 2) (UniProt P29990); experiment: Inhibition of Dengue virus serotype 2 NS2B-NS3 protease transfected in human HeLa cells at 12.5 uM measured after 24 hrs by Renilla-luciferase reporter gene assay relative to control; assay type: cell-based
[6] = biological target: Trypsin (Homo sapiens, UniProt P07477+P07478+P35030); experiment: Inhibition of trypsin (unknown origin) at 50 uM using Boc-Val-Pro-Arg-AMC as substrate preincubated for 15 mins followed by substrate addition and measured for 15 mins by fluorimetric assay relative to control; assay type: protein assay; conditions: 0.25 h, 50 µM
[7] = biological target: Prothrombin (Homo sapiens, UniProt P00734); experiment: Inhibition of thrombin (unknown origin) at 25 uM using Boc-Val-Pro-Arg-AMC as substrate preincubated for 15 mins followed by substrate addition and measured for 15 mins by fluorimetric assay; conditions: 0.25 h
[8] = biological target: Genome polyprotein (West Nile virus, UniProt P06935); experiment: Inhibition of West Nile virus NS2B-NS3 protease expressed in Escherichia coli BL21 lambda (DE3) cells using Abz-Gly-Leu-Lys-Arg-Gly-Gly-3-(NO2)Tyr as substrate preincubated for 15 mins followed by substrate addition measured for 15 mins by fluorimetric analysis
Sequence of Genome polyprotein (West Nile virus, UniProt P06935) (P06935 1371-1501 limits assumed): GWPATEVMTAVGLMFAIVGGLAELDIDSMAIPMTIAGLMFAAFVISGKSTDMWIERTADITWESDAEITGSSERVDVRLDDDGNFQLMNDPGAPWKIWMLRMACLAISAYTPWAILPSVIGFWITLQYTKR
Sequence of Genome polyprotein (West Nile virus, UniProt P06935) (P06935 1502-2120 limits assumed): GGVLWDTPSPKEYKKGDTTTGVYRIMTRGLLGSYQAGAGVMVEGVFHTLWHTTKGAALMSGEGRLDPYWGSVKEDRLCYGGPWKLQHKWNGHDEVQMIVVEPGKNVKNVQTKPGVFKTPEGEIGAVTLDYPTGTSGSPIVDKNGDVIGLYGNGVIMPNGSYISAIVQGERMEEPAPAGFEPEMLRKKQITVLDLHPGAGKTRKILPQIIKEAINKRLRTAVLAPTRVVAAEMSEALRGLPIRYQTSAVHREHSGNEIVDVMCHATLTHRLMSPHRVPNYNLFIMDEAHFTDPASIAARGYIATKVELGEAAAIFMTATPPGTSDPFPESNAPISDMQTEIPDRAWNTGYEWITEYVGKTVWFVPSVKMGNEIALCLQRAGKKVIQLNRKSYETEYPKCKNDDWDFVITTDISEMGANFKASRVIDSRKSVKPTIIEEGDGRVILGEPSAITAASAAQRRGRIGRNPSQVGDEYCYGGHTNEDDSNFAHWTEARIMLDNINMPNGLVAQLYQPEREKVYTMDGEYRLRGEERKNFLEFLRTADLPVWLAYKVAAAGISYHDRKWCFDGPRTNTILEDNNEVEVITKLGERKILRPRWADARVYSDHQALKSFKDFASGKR

[9] = biological target: T1, Genome polyprotein; experiment: Inhibition of Dengue virus serotype 2 NS2B-NS3 protease expressed in Escherichia coli BL21 lambda (DE3) cells using Abz-Nle-Lys-Arg-Arg-Ser-3-(NO2)Tyr as substrate preincubated for 15 mins followed by substrate addition and measured for 15 mins by FRET assay

Structure (SMILES)	inhibition [1] [%]	CC50 at 24 h [2] [µM]	inhibition [3] [%]	EC50 [4] [nM]	inhibition [5] [%]	inhibition (INH) [6]	inhibition (INH) [7]	IC50 [8] [µM]	IC50 [9] [µM]
CCCCC(=O)N[C@H](C(=O)NCc1ccc(NC(=N)N)cc1)c1ccc(OCc2ccccc2)cc1.O=C(O)C(F)(F)F	11.2	> 50	22	2800	69.4	Not Active	Not Active	–	–
CCCCCC(=O)N[C@H](C(=O)NCc1ccc(NC(=O)CN)cc1)c1ccc(OCc2ccccc2)cc1	< 10	> 50	28.2	–	10.1	Not Active	Not Active	–	–
CCCCCC(=O)N[C@H](C(=O)NCc1ccc(NC(=N)N)cc1)c1ccccc1.O=C(O)C(F)(F)F	< 10	> 50	< 10	–	18.8	Not Active	Not Active	–	–
CCCCCC(=O)N[C@@H](C(=O)NCc1ccc(NC(=N)N)cc1)c1ccc(OCc2ccc(C(F)(F)F)cc2)cc1.O=C(O)C(F)(F)F	102	> 50	96.7	–	44.6	Not Active	Not Active	14	6.6
CCCCCC(=O)N[C@H](C(=O)NCc1ccc(C(=O)NN)cc1)c1ccc(OCc2ccccc2)cc1	55	> 50	28.3	–	30.7	Not Active	Not Active	–	–
CCCCCC(=O)N[C@H](C(=O)Nc1ccc(N)cc1)c1ccc(OCc2ccccc2)cc1.O=C(O)C(F)(F)F	10.7	> 50	13.2	–	49.5	Not Active	Not Active	–	–
CCCCCC(=O)N[C@H](C(=O)NCc1ccccc1)c1ccc(OCc2ccccc2)cc1	< 10	> 50	< 10	–	< 10	Not Active	Not Active	–	–
CCCCCC(=O)N[C@H](C(=O)NCc1cccc(CNC(=N)N)c1)c1ccc(OCc2ccccc2)cc1	32.7	> 50	43.8	–	47.4	Not Active	Not Active	–	–
CCCCCC(=O)N[C@H](C(=O)NCCCCN)c1ccc(OCc2ccccc2)cc1	< 10	> 50	21.3	–	45.8	Not Active	Not Active	–	–
N=C(N)Nc1ccc(CNC(=O)[C@@H](NC(=O)c2ccccc2-c2ccccc2)c2ccc(OCc3ccccc3)cc2)cc1.O=C(O)C(F)(F)F	88.1	> 50	93.3	–	30.1	Not Active	Not Active	35	24
CCCCCC(=O)N[C@H](C(=O)NCc1ccc(NC(=N)N)cc1)c1ccc(OCc2cccc(OC)c2)cc1.O=C(O)C(F)(F)F	15.7	> 50	32.5	–	26	Not Active	Not Active	–	–
N=C(N)NCCC[C@H](NC(=O)[C@H](Cc1ccc(CN)cc1)NC(=O)c1ccccc1)B(O)O	–	–	–	–	–	Not Active	Not Active	–	–
N=C(N)NCCC[C@H](NC(=O)c1ccccc1)C(=O)N[C@@H](CCCCN)C(=O)NCC(N)=O (Bz-Arg-Lys-Gly-NH2)	15.3	–	68.6	–	< 10	Not Active	Not Active	–	23
CC(=O)N[C@H](C(=O)NCc1ccc(NC(=N)N)cc1)c1ccc(OCc2ccccc2)cc1.O=C(O)C(F)(F)F	< 10	> 50	< 10	–	28.9	Not Active	Not Active	–	–
CCCCCC(=O)N[C@@H](C(=O)NCc1ccc(CN)cc1)c1ccc(OCc2ccc(Cl)c(Cl)c2)cc1.O=C(O)C(F)(F)F	100	< 12.5	95.2	–	–	Not Active	Not Active	11	3.1
CCCCCC(=O)N[C@H](C(=O)NCc1ccc(NC(N)=O)cc1)c1ccc(OCc2ccccc2)cc1	34.2	> 50	23.1	–	24	Not Active	Not Active	–	–
N=C(N)NCCC[C@H](NC(=O)c1ccc(/C=C2\SC(=O)N(C3CCC3)C2=O)cc1)C(=O)N[C@@H](CCCCN)C(=O)N[C@H](C(N)=O)c1ccccc1	–	–	–	–	–	Not Active	Not Active	–	–
CCCCCC(=O)N[C@H](C(=O)NCc1ccc(NC(=N)N)cc1)c1ccc(OCc2ccc(C(C)(C)C)cc2)cc1.O=C(O)C(F)(F)F	98.9	> 12.5	98.1	–	38.7	Not Active	Not Active	16	13
N=C(N)Nc1ccc(CNC(=O)[C@@H](NC(=O)c2ccccc2)c2ccc(OCc3ccccc3)cc2)cc1.O=C(O)C(F)(F)F	18.9	> 50	39	–	10.5	Not Active	Not Active	–	–
CCCCCC(=O)N[C@H](C(=O)N[C@@H](CCCCN)C(N)=O)c1ccc(OCc2ccccc2)cc1	< 10	> 50	< 10	–	11.1	Not Active	Not Active	–	–
CCCCCC(=O)N[C@H](C(=O)NCc1ccc(NC(=N)N)cc1)c1ccc(OCc2ccc(C#N)cc2)cc1.O=C(O)C(F)(F)F	24.8	> 50	74.3	–	12.7	Not Active	Not Active	–	40
N=C(N)Nc1ccc(CNC(=O)[C@@H](NC(=O)c2ccc(OCc3ccc(Cl)cc3)cc2)c2ccc(OCc3ccccc3)cc2)cc1.O=C(O)C(F)(F)F	103	> 12.5	98.7	–	44.6	Not Active	Not Active	2.5	2.2
CCCCCC(=O)N[C@H](C(=O)NCc1ccc(C#N)cc1)c1ccc(OCc2ccccc2)cc1	25.6	> 50	< 10	–	28.3	Not Active	Not Active	–	–
CCCCCC(=O)N[C@H](C(=O)NCCN)c1ccc(OCc2ccccc2)cc1	< 10	> 50	< 10	–	44	Not Active	Not Active	–	–
N=C(N)Nc1ccc(CNC(=O)[C@@H](NC(=O)CC2CCCCC2)c2ccc(OCc3ccccc3)cc2)cc1.O=C(O)C(F)(F)F	99.5	> 50	100	–	41.7	Not Active	Not Active	28	9
CCCCCC(=O)N[C@H](C(=O)Nc1ccc(NC(=N)N)cc1)c1ccc(OCc2ccccc2)cc1.O=C(O)C(F)(F)F	53.8	≥ 12.5	62.6	–	–	Not Active	Not Active	–	–
CCCCCC(=O)N[C@H](C(=O)NCc1ccncc1)c1ccc(OCc2ccccc2)cc1	< 10	> 50	< 10	–	40.6	Not Active	Not Active	–	–
CCCCCC(=O)N[C@H](C(=O)Nc1ccc(CN)cc1)c1ccc(OCc2ccccc2)cc1.O=C(O)C(F)(F)F	37.6	< 12.5	26.5	–	–	Not Active	Not Active	–	–
CCCCCC(=O)N[C@H](C(=O)NCc1ccc(N)cc1)c1ccc(OCc2ccccc2)cc1.O=C(O)C(F)(F)F	13.5	> 50	13	–	43	Not Active	Not Active	–	–
